Source: the NIST ThermoML archive (doi:10.1016/j.jct.2016.05.019)
Values joined by “and” are separate entries in the source; they are usually repeats but may differ in a detail not shown here. Equal entries are not always repeated.

Conditions: Liquid; for mass density: Bellows volumetry

CCC(C)C [2-methylbutane]
Conditions	mass density
280 K, 1000 kPa	633.54 kg/m3
280 K, 2000 kPa	634.7 kg/m3
280 K, 3000 kPa	635.86 kg/m3
280 K, 5000 kPa	638.02 kg/m3
280 K, 10000 kPa	643.42 kg/m3
280 K, 20000 kPa	653.11 kg/m3
280 K, 30000 kPa	661.46 kg/m3
280 K, 40000 kPa	669.03 kg/m3
280 K, 50000 kPa	675.94 kg/m3
280 K, 60000 kPa	682.44 kg/m3
280 K, 70000 kPa	688.43 kg/m3
280 K, 80000 kPa	694.03 kg/m3
280 K, 90000 kPa	699.3 kg/m3
280 K, 100000 kPa	704.35 kg/m3
280 K, 120000 kPa	713.77 kg/m3
280 K, 140000 kPa	722.2 kg/m3
280 K, 160000 kPa	729.89 kg/m3
280 K, 180000 kPa	737.33 kg/m3
280 K, 200000 kPa	744.07 kg/m3
298.14 K, 10200 kPa	627.35 kg/m3
298.14 K, 40600 kPa	656.53 kg/m3
298.14 K, 101400 kPa	694.83 kg/m3
298.14 K, 177400 kPa	727.57 kg/m3
300 K, 1000 kPa	613.77 kg/m3
300 K, 2000 kPa	615.18 kg/m3
300 K, 3000 kPa	616.54 kg/m3
300 K, 5000 kPa	619.26 kg/m3
300 K, 10000 kPa	625.53 kg/m3
300 K, 20000 kPa	636.61 kg/m3
300 K, 30000 kPa	646.19 kg/m3
300 K, 40000 kPa	654.71 kg/m3
300 K, 50000 kPa	662.36 kg/m3
300 K, 60000 kPa	669.45 kg/m3
300 K, 70000 kPa	675.91 kg/m3
300 K, 80000 kPa	682.03 kg/m3
300 K, 90000 kPa	687.64 kg/m3
300 K, 100000 kPa	692.98 kg/m3
300 K, 120000 kPa	702.76 kg/m3
300 K, 140000 kPa	711.75 kg/m3
300 K, 160000 kPa	719.81 kg/m3
300 K, 180000 kPa	727.5 kg/m3
300 K, 200000 kPa	734.71 kg/m3
320 K, 199 kPa	592.04 kg/m3
320 K, 210 kPa	592.07 kg/m3
320 K, 315 kPa	592.25 kg/m3
320 K, 502 kPa	592.61 kg/m3
320 K, 1000 kPa	593.5 kg/m3 and 592.72 kg/m3
320 K, 2000 kPa	595.25 kg/m3 and 594.35 kg/m3
320 K, 3000 kPa	596.07 kg/m3
320 K, 5000 kPa	599.33 kg/m3
320 K, 10000 kPa	606.77 kg/m3
320 K, 20000 kPa	619.58 kg/m3
320 K, 30000 kPa	630.46 kg/m3
320 K, 40000 kPa	639.89 kg/m3
320 K, 50000 kPa	648.39 kg/m3
320 K, 60000 kPa	656.03 kg/m3
320 K, 70000 kPa	662.98 kg/m3
320 K, 80000 kPa	669.62 kg/m3
320 K, 90000 kPa	675.83 kg/m3
320 K, 100000 kPa	681.48 kg/m3
320 K, 120000 kPa	691.83 kg/m3
320 K, 140000 kPa	701.5 kg/m3
320 K, 160000 kPa	710.26 kg/m3
320 K, 180000 kPa	718.37 kg/m3
320 K, 200000 kPa	725.65 kg/m3
323.13 K, 49030 kPa	645.8 kg/m3
323.13 K, 98070 kPa	678.79 kg/m3
323.13 K, 147100 kPa	703.2 kg/m3
323.13 K, 196130 kPa	722.79 kg/m3
340 K, 338 kPa	569.61 kg/m3
340 K, 420 kPa	569.78 kg/m3
340 K, 513 kPa	570.01 kg/m3
340 K, 1000 kPa	571.14 kg/m3 and 570.66 kg/m3
340 K, 2000 kPa	572.85 kg/m3
340 K, 3000 kPa	574.98 kg/m3
340 K, 5000 kPa	578.97 kg/m3
340 K, 10000 kPa	587.99 kg/m3
340 K, 20000 kPa	602.92 kg/m3
340 K, 30000 kPa	615.28 kg/m3
340 K, 40000 kPa	625.82 kg/m3
340 K, 50000 kPa	635.12 kg/m3
340 K, 60000 kPa	643.45 kg/m3
340 K, 70000 kPa	651.03 kg/m3
340 K, 80000 kPa	658.05 kg/m3
340 K, 90000 kPa	664.53 kg/m3
340 K, 100000 kPa	670.52 kg/m3
340 K, 120000 kPa	681.53 kg/m3
340 K, 140000 kPa	691.52 kg/m3
340 K, 160000 kPa	700.49 kg/m3
340 K, 180000 kPa	708.89 kg/m3
340 K, 200000 kPa	716.61 kg/m3
360 K, 550 kPa	544.65 kg/m3
360 K, 608 kPa	544.68 kg/m3
360 K, 609 kPa	544.84 kg/m3
360 K, 702 kPa	545.09 kg/m3
360 K, 1000 kPa	545.87 kg/m3 and 545.89 kg/m3
360 K, 2000 kPa	548.79 kg/m3
360 K, 3000 kPa	551.5 kg/m3
360 K, 5000 kPa	556.57 kg/m3
360 K, 10000 kPa	567.71 kg/m3
360 K, 20000 kPa	585.18 kg/m3
360 K, 30000 kPa	599.16 kg/m3
360 K, 40000 kPa	610.91 kg/m3
360 K, 50000 kPa	621.15 kg/m3
360 K, 60000 kPa	630.27 kg/m3

340 K
Conditions	mass density [kg/m3]	vapor or sublimation pressure [kPa]
–	569.21	328
